Laboratory results taken from article PMC7541675 (Molecular cancer therapeutics, 2020).
Read-outs that look alike come from different tables or passages of the source.

Key:
[1] = in vivo
[2] = system: ovarian cancer; settings: cited from earlier work
[3] = Pharmacokinetic analyses of paclitaxel and sorafenib in plasma; settings: paclitaxel 80 mg/m^2 IV, C1D15 (with sorafenib); for Cmax: human, iv, Cmax mean (SD)
[4] = system: patients with advanced refractory solid tumors
[5] = 200 mg BID; cited from earlier work
[6] = clinical; settings: human, in vivo; for Cmax: Cmax mean (SD); for half-life: t1/2 mean (SD)
[7] = system: patients; settings: cited from earlier work
[8] = paclitaxel without bevacizumab, AURELIA paclitaxel cohort
[9] = recurrent ovarian cancer patients
[10] = in combination bevacizumab plus sorafenib, previous phase I studies
[11] = bevacizumab added to paclitaxel, AURELIA paclitaxel cohort

Q: Which “paclitaxel exposure with concurrent sorafenib (drug interaction)” value [1] does the source give for `CC(=O)O[C@H]1C(=O)[C@@]2(C)[C@H]([C@H](OC(=O)c3ccccc3)[C@]3(O)C[C@H](OC(=O)[C@H](O)[C@@H](NC(=O)c4ccccc4)c4ccccc4)C(C)=C1C3(C)C)[C@]1(OC(C)=O)CO[C@@H]1C[C@@H]2O` [paclitaxel] here?
A: Its value is “no significant differences”.

Q: What about the ORR [2, 8] of the same compound?
A: Its ORR is 30.2%.

Q: What about the OS [2, 8] of the same compound?
A: The OS was 13.2 months.

Q: And the PFS [2, 8]?
A: The PFS was 3.9 months.

Q: What about the Cmax ([3]; cohort 1, sorafenib 200 mg BID 5/7, n=6) of the same compound?
A: The Cmax was 4350 ng/mL.

Q: What about the Cmax ([3]; cohorts 2/2 expansion, sorafenib 200 mg BID 7/7, n=13) of the same compound?
A: The Cmax was 3480 ng/mL.

Q: What about the “Cmax mean (SD)” value ([3]; cohort 3, sorafenib 400 mg BID 5/7, n=2) of the same compound?
A: The value was 3,804 (1306) ng/mL.

Q: What does the source list for `CNC(=O)c1cc(Oc2ccc(NC(=O)Nc3ccc(Cl)c(C(F)(F)F)c3)cc2)ccn1` [sorafenib]?
A: Median number of cycles before sorafenib dose reduction to 200 mg QD 5/7 ([4]; human, in vivo): 3 cycles; Patients needing further sorafenib dose reduction to 200 mg QOD ([4]; human, in vivo): 21%; Patients on study ≥ 4 months who had sorafenib dose reductions ([4]; human, in vivo): 76%; Patients requiring further sorafenib dose reduction to 200 mg QD 5/7 ([4]; human, in vivo): 62%; Recommended phase II dose (RP2D) ([4]; human, in vivo): 200 mg BID 5/7; Maximum tolerated dose (MTD) ([4]; sorafenib oral, with bevacizumab 5 mg/kg Q2W and paclitaxel 80 mg/m^2 QW x 3 every 4 weeks): 200 mg BID 7/7; t1/2 mean (SD) ([1]; human, po): 6.5 (2.2) h; AUC0–8 mean (SD) ([1]; human, po, 200 mg): 14,911 (8,174) ng*hr/mL; Cmax mean (SD) ([1]; human, po, 200 mg): 4,539 (2,333) ng/mL; ORR, single agent [2, 9]: 3%; OS, single agent [2, 9]: 16 months; PFS, single agent [2, 9]: 2 months; ORR ([2]; sorafenib dosed sequentially with topotecan, TRIAS randomized phase II, platinum-resistant ovarian cancer): 31%; PFS ([2]; sorafenib dosed sequentially with topotecan, TRIAS, p=0.002): 6.7 months; OS ([2]; sorafenib dosed sequentially with topotecan, TRIAS, p=0.017): 17 months; AUC0–8, historical values with sorafenib alone [5]: 6,000–16,000 ng*h/mL; Cmax ([6]; po, 200 mg): 2760 ng/mL; AUC(0-t) ([6]; po, 400 mg, AUC0–8 mean (SD)): 23000 ng·h/mL; Cmax ([6]; po, 400 mg): 3820 ng/mL; half-life ([6]; po, 400 mg): 7.8 h; half-life ([6]; po): 4 h; AUC(0-t) ([6]; sorafenib AUC0–8 in non-responders): 17300 ng·h/mL; AUC(0-t) ([6]; sorafenib AUC0–8 in responders): 38100 ng·h/mL; HFSR incidence expected with monotherapy ([7]; anti-VEGF monotherapy, all grades): 25–50%; grade 3 HFSR incidence expected with monotherapy ([7]; anti-VEGF monotherapy): 10%; maximum tolerated dose (MTD) of sorafenib [7, 10]: 200 mg twice daily (BID)

Q: For `CC[C@@]1(O)C(=O)OCc2c1cc1n(c2=O)Cc2cc3c(CN(C)C)c(O)ccc3nc2-1` [topotecan], which OS ([2]; topotecan alone, TRIAS) is on record?
A: The OS was 10 months.

Q: And the PFS ([2]; topotecan alone, TRIAS)?
A: The PFS was 4.4 months.

Q: Which PFS ([2]; bevacizumab added to chemotherapy, AURELIA, p<0.001) does the source give for bevacizumab here?
A: The PFS was 6.7 months.

Q: What about the OS ([2]; bevacizumab added to chemotherapy, AURELIA, p=0.174) of the same compound?
A: Its OS is 16.6 months.

Q: What about the ORR [2, 11] of the same compound?
A: The ORR was 53.3%.

Q: And the OS [2, 11]?
A: The OS was 22.4 months.

Q: What about the PFS [2, 11] of the same compound?
A: Its PFS is 10.4 months.

Q: What about the “ORR, single agent” value [2, 9] of the same compound?
A: Its value is 20%.

Q: And the “OS, single agent” value [2, 9]?
A: The value was 17 months.

Q: What about the “HTN incidence expected with monotherapy” value ([7]; human, in vivo) of the same compound?
A: The value was 15–30%.

Q: And the “maximum tolerated dose (MTD) of bevacizumab” value [7, 10]?
A: The value was 5 mg/kg Q2W.
